Like-named read-outs stand apart in the source and are kept apart here.
Experiments:
[1] = molecular target: T1, σ2 receptor (Rattus norvegicus, UniProt Q5U3Y7); test: Receptor binding assay with [3H]-ditolylguanidine on rat liver membranes; settings: for Ki: read-out: affinity to the σ2 receptor
T1 construct: tissue Harlan Winkelmann; host or cells: rat liver membranes
T1 sequence (Q5U3Y7 1-176): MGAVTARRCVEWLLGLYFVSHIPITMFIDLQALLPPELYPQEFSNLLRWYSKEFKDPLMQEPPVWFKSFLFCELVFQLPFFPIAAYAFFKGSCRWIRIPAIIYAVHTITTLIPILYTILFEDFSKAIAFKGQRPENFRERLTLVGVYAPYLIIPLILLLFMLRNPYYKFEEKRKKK
Experimental: (§1) The pig brains were a donation of the local slaughterhouse (Coesfeld, Germany). Homogenizer: Elvehjem Potter (B. Braun Biotech International, Melsungen, Germany). Centrifuge: High-speed cooling centrifuge model Sorvall RC-5C plus (Thermo Fisher Scientific, Langenselbold, Germany). Filter: Printed Filtermat Typ A and B (Perkin Elmer LAS, Rodgau-Jügesheim, Germany), presoaked in 0.5% aqueous polyethylenimine for 2 h at room temperature before use. […] Before filling to the final volume of 1000 mL, the pH of the solution was adjusted to pH=7.5 by dropwise addition of 1M HCl. The filtration was carried out with a MicroBeta FilterMate-96 Harvester (Perkin Elmer). The scintillation analysis was performed using Meltilex (Typ A or B) solid scintillator (Perkin Elmer). The solid scintillator was melted on the filtermat at a temperature of 95 °C for 5 minutes. After solidifying of the scintillator at room temperature, the scintillation was measured using a MicroBeta Trilux scintillation analyzer (Perkin Elmer). The overall counting efficiency was 20 %. All experiments were carried out in triplicates using standard 96-well-multiplates (Diagonal, Muenster, Germany). […] The Ki-values are given as mean value ± SEM from three independent experiments.
Determination of affinity to the σ2 receptor
Two rat livers (Harlan Winkelmann, Borchen, Germany) were cut into smaller pieces and homogenized with the potter (500-800 rpm, 10 up-and-down strokes) in 6 volumes of cold 0.32 M sucrose. The suspension was centrifuged at 1200 x g for 10 min at 4 °C. The supernatant was separated and centrifuged at 31000 x g for 20 min at 4 °C. The pellet was resuspended in 5-6 volumes of buffer (50 mM TRIS, pH 8.0) and incubated at room temperature for 30 minutes. After the incubation, the suspension was centrifuged again at 31000 x g for 20 min at 4 °C. The final pellet was resuspended in 5 to 6 volumes of buffer, the protein concentration was determined according to the method of Bradford using bovine serum albumin as standard, and subsequently the preparation was frozen (-80 °C) in 1.5 mL portions containing about 2 mg protein/mL.
(50 Ci/mmol; ARC). […] The incubation was terminated by rapid filtration through the presoaked filtermats using a cell harvester. After washing each well five times with 300 µL of water, the filtermats were dried at 95 °C. Subsequently, the solid scintillator was placed on the filtermat and melted at 95 °C. The bound radioactivity trapped on the filters was counted in the scintillation analyzer as described in the "General procedures" section.

[2] = molecular target: T2, polyamine binding site of the NR2B subunit of the NMDA receptor (Homo sapiens, UniProt Q05586+Q13224); test: Filtration-based receptor binding assay with [3H]-Ifenprodil as radioligand; settings: 5 nM [3H]-Ifenprodil, membrane homogenates of mouse L(tk-) cells transfected with NR1-1a/NR2B, 180 min at 37 °C, read-out: affinity to the NR2B binding site of the NMDA receptor
T2 construct: expressed in transfected cells; host or cells: mouse L(tk-) cells, dexamethasone-induced; gift from D. Steinhilber, University of Frankfurt
T2 sequence (Q13224 27-1484, other chains not shown): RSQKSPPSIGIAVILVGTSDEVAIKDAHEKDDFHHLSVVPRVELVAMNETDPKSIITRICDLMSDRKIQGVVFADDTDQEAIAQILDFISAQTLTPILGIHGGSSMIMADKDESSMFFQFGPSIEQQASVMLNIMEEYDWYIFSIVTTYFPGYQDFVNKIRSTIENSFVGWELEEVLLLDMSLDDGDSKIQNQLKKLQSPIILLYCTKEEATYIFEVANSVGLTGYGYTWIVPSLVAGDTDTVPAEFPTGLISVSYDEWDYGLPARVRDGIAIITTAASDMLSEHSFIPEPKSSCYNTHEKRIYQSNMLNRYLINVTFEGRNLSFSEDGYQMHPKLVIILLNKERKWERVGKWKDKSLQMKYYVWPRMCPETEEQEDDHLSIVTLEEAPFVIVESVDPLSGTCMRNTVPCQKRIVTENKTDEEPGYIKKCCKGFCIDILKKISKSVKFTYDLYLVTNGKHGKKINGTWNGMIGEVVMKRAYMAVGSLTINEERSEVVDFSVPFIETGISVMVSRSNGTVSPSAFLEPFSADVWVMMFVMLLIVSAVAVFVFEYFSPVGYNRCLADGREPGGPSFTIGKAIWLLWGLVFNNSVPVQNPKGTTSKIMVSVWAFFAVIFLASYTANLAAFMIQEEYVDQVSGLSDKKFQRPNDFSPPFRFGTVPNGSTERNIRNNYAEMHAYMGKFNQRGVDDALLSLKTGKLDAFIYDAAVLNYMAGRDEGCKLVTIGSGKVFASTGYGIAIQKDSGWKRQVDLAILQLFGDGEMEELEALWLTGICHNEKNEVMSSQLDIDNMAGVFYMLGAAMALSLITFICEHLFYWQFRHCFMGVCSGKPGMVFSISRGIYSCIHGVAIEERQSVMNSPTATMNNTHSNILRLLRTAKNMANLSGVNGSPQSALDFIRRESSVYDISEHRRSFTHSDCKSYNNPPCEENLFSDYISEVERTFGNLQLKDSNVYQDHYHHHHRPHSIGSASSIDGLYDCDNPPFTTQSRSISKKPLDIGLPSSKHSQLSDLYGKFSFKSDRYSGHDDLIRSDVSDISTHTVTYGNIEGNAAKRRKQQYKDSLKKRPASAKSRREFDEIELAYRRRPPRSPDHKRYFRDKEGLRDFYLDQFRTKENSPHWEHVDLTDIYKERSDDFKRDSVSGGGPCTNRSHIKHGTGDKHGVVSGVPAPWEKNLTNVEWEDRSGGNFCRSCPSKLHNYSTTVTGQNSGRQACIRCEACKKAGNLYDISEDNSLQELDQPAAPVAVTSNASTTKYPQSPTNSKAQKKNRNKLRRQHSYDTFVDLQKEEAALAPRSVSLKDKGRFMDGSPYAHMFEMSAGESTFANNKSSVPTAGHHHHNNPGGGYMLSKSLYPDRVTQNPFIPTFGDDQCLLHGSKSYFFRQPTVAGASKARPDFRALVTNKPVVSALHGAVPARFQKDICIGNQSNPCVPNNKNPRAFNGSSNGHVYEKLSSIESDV
Experimental: Mouse L(tk-) cells stably transfected with the dexamethasone-inducible eukaryotic expression vectors pMSG NR1-1a, pMSG NR2B in a 1:5 ratio were a generous gift from D. Steinhilber (Department of Pharmacy, University of Frankfurt, Germany). The transformed L(tk-) cells were grown in Modified Earl's Medium (MEM) containing 10% of standardized FCS (Biochrom AG, Berlin, Germany). The expression of the NMDA receptor at the cell surface was induced after the cell density of the adherent growing cells had reached approximately 90% of confluency. For the induction, the original growth medium was replaced by growth medium containing 4 µM dexamethasone and 4 µM ketamine (final concentration). After 24 h the cells were harvested by trypsination and pelleted (10 min, 5,000 x g, Hettich Rotina 35R centrifuge, Tuttlingen, Germany).
For the binding assay, the cell pellet was resuspended in PBS buffer and the number of cells was determined using an improved Neubauer's counting chamber (VWR, Darmstadt, Germany). Subsequently, the cells were lysed by sonication (4 °C, 6 x 10 s cycles with breaks of 10 sec). The resulting cell fragments were centrifuged with a high performance cool centrifuge (20,000 x g, 4 °C, Sorvall RC-5 plus, Thermo Scientific). The supernatant was discarded and the pellet resuspended in a defined volume of phosphate buffer saline (PBS) yielding cell fragments of approximately 500,000 cells/mL. The suspension of membrane homogenates was sonicated again (4 °C, 2 x 10 s cycles with a break of 10 min) and stored at -80 °C.
The cell membrane suspension was added last. All experiments were carried out in triplicates. The incubation was terminated by rapid filtration through filtermats using a cell harvester (MicroBeta FilterMate-96 Harvester, Perkin Elmer). Prior to harvesting, the filtermats were presoaked in 0.5% aqueous polyethylenimine for 2 h at room temperature. After washing each well five times with 300 µL of water, the filtermats were dried at 95 °C. Subsequently, the solid scintillator was placed on the filtermat and melted at 95 °C. After 5 min, the solid scintillator was allowed to solidify at room temperature. The bound radioactivity trapped on the filters was counted in the scintillation analyzer (Microbeta Counter, Perkin Elmer). The overall counting efficiency was 20%.
The protein concentration was determined by the method of Bradford, modified by Stoscheck. The Bradford solution was prepared by dissolving 5 mg of Coomassie Brilliant Blue G 250 in 2.5 mL EtOH (95%, v/v). 10 mL deionized H2O and 5 mL phosphoric acid (85%, m/v) were added to this solution, the mixture was stirred and filled up to a total volume of 50.0 mL with deionized water. The calibration was carried out using bovine serum protein as a standard in concentrations between 0.1 and 10 mg /L. In a 96-well standard multiplate, 10 µL of the calibration solution or 10 µL of the membrane receptor preparation were mixed with 190 µL of the Bradford solution, respectively.
Kd and Bmax were calculated as described in the "Data analysis" section.
Data analysis was performed with Graph Pad Prism® Software, Version 3.0 (Graph Pad Software Inc., San Diego, CA, USA).
Saturation analyses were made by nonlinear regression using the "one-site-saturation" calculation method. The IC50 values of the test compounds used in the competitive binding experiments were determined by nonlinear regression using the "one-site-competition" calculation method. […] The Ki values are given as mean values from three independent experiments ± Standard Error of the Mean (S.E.M).

[3] = molecular target: T3, σ1 receptor (Cavia porcellus, UniProt Q60492); test: Receptor binding assay with [3H]-(+)-pentazocine on guinea pig brain membranes; settings: for inhibition of the σ1 receptor only at concentrations above: given as above 1 µM or 10 µM
T3 construct: tissue Harlan Winkelmann; host or cells: guinea pig brain membranes
T3 sequence (Q60492 whole entry): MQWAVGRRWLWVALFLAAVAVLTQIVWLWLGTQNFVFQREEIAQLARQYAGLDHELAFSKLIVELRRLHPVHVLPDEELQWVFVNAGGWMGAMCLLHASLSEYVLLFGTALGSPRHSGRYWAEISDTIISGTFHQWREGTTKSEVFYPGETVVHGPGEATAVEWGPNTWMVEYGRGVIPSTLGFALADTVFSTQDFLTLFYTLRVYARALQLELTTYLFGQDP
Experimental: as §1
Determination of the affinity to the σ1 receptor
Five guinea pig brains (Harlan Winkelmann, Borchen, Germany) were homogenized with the potter (500-800 rpm, 10 up-and-down strokes) in 6 volumes of cold 0.32 M sucrose. The suspension was centrifuged at 1200 x g for 10 min at 4 °C. […] This procedure was repeated twice. The final pellet was resuspended in 5 to 6 volumes of buffer, the protein concentration was determined according to the method of Bradford using bovine serum albumin as standard, and subsequently the preparation was frozen (-80 °C) in 1.5 mL portions containing about 1.5 mg protein/mL.
The test was performed with the radioligand [^3H]-(+)-pentazocine (42,5 Ci/mmol; Perkin Elmer). […] The incubation was terminated by rapid filtration through the presoaked filtermats using a cell harvester. After washing each well five times with 300 µl of water, the filtermats were dried at 95 °C. The bound radioactivity trapped on the filters was counted in the scintillation analyzer as described in the "General procedures" section. The non-specific binding was determined with 10 µM unlabeled (+)-pentazocine.

[4] = 3 nM [3H]-ditolylguanidine with 2 µM (+)-pentazocine
[5] = Ki mean of three experiments ± S.E.M.
[6] = 2 nM [3H]-(+)-pentazocine, guinea pig brain membranes
[7] = 3 nM [3H]-ditolylguanidine with 2 µM (+)-pentazocine, 180 min at room temperature, mean ± SEM
[8] = 2 nM [3H]-(+)-pentazocine, guinea pig brain membranes, 180 min at 37 °C, mean ± SEM, read-out: affinity to the σ1 receptor
[9] = 3 nM [3H]-ditolylguanidine with 2 µM (+)-pentazocine, values given in µM

SMILES	Ki [2, 5] [µM]	Ki [1, 7] [µM]	Ki [3, 8] [nM]	also measured
OC1CN([C@H]2CC[C@@H](c3ccccc3)CC2)CCc2cc(OCc3ccccc3)ccc21 (relative stereo) [formula (19)]	0.156	–	–	inhibition of the σ2 receptor only at concentrations above [1, 4]: above 1 µM; inhibition of the σ1 receptor only at concentrations above [3, 6]: above 1 µM
Oc1ccc2c(c1)CCN([C@H]1CC[C@@H](c3ccccc3)CC1)CC2O (relative stereo) [formula (21)]	0.00486	0.00856 ± 0.00433	–	–
Oc1ccc2c(c1)CCN([C@H]1CC[C@H](c3ccccc3)CC1)CC2O (relative stereo) [formula (23)]	0.0342	0.00893 ± 0.00257	200 ± 62	–
COc1ccc2c(c1)CCN(CCCCc1ccccc1)CC2O (stereo not shown) [formula (1)]	0.00512	0.554 ± 0.221	182 ± 67	–
CCCCCCCCN1CCc2cc(OC)ccc2C(O)C1 (stereo not shown) [formula (2)]	0.591 ± 0.15	0.108 ± 0.09	–	Ki [3]: 44.6 ± 21.4 nM
COc1ccc2c(c1)CCN(C1CCC(c3ccccc3)CC1)CC2O (stereo not shown) [formula (3)]	0.192 ± 0.026	0.0816 ± 0.0444	33.1 ± 29.8	–
Oc1ccc2c(c1)CCN(CCCCc1ccccc1)CC2O (stereo not shown) [formula (4)]	0.0153 ± 0.0012	–	–	–
COc1ccc2c(c1)CCN(CCCCCc1ccccc1)CC2O (stereo not shown) [formula (5)]	0.325	0.305	65.3 ± 12.3	–
COc1ccc2c(c1)CCN(CCCC(=O)c1ccc(F)cc1)CC2O (stereo not shown) [formula (6)]	0.258	–	–	inhibition of the σ2 receptor only at concentrations above [1, 4]: above 1 µM; inhibition of the σ1 receptor only at concentrations above [3, 6]: above 1 µM
COc1ccc2c(c1)CCN(CCCCSc1ccccc1)CC2O (stereo not shown) [formula (7)]	–	0.308 ± 0.116	94.7 ± 51	Ki ([2]; values given in µM): 1.04 µM
COc1ccc2c(c1)CCN(CCCSc1ccccc1)CC2O (stereo not shown) [formula (8)]	–	–	155	Ki [1, 9]: 1.52 µM; Ki ([2]; values given in µM): 1.88 µM
OC1CN(CCCCc2ccccc2)CCc2cc(OCc3ccccc3)ccc21 (stereo not shown) [formula (9)]	0.249 ± 0.063	–	293 ± 101	Ki [1, 9]: 1.05 µM
O=S(=O)(CCCN1CCc2cc(OCc3ccccc3)ccc2C(O)C1)c1ccccc1 (stereo not shown) [formula (10)]	0.0452	–	349	Ki [1, 9]: 3.04 µM
COc1ccc2c(c1)CCN(CCCC1(c3ccc(F)cc3)OCC(C)(C)CO1)CC2O (stereo not shown) [formula (11)]	0.107	–	45.6	Ki ([1]; 3 nM [3H]-[…] with 2 µM (+)-pentazocine, 180 min at room temperature, mean ± SEM): 0.103 µM
OC1CN(CCCSc2ccccc2)CCc2cc(OCc3ccccc3)ccc21 (stereo not shown) [formula (12)]	0.046	0.653	376	–
CC(C)(C)c1ccc(C(=O)CCCN2CCc3cc(OCc4ccccc4)ccc3C(O)C2)cc1 (stereo not shown) [formula (13)]	0.099	–	604	Ki [1, 9]: 6.43 µM
COc1ccc2c(c1)CCN(CCCC(=O)c1ccc(C(C)(C)C)cc1)CC2O (stereo not shown) [formula (14)]	0.0604	0.267 ± 0.055	44.3 ± 14.1	–
CC1(C)COC(CCCN2CCc3cc(OCc4ccccc4)ccc3C(O)C2)(c2ccc(F)cc2)OC1 (stereo not shown) [formula (15)]	–	–	–	inhibition of the σ2 receptor only at concentrations above [1, 4]: above 1 µM; Ki ([2]; values given in µM): 1.24 µM; inhibition of the σ1 receptor only at concentrations above [3, 6]: above 1 µM
CN(Cc1ccccc1)C(=O)CN1CCc2cc(O)ccc2C(O)C1 (stereo not shown) [formula (16)]	–	–	172	Ki [1, 9]: 1.58 µM; Ki ([2]; values given in µM): 7.68 µM
C[C@H]1[C@H](O)c2ccc(O)cc2CCN1CCCCc1ccccc1 [formula (29)]	0.171	–	40.8	–
C[C@@H]1[C@@H](O)c2ccc(O)cc2CCN1CCCCc1ccccc1 [formula (30)]	0.0164	–	846	–

Source: EP2246331A1, “NR2B-selective NMDA-receptor antagonists” (Westfälische Wilhelms-Universität Münster, priority 2009, dated 2010)
